Article doi:10.1101/2025.04.25.650653, “Hierarchical small molecule inhibition of MYST acetyltransferases” (bioRxiv, 2025)
Where “and” joins values, the source holds several entries; their conditions need not be identical. Identical values can stand only once.

Tests used:
[1] = tested on: proteins captured by H3K14-CoA resin from HeLa nuclear extracts; test: Proteome-wide competitive chemoproteomic profiling (H3K14-CoA beads, TMT LC-MS/MS); format: binding; settings: for Log2FC PF9363-100nM / PF9363-0nM / Log2FC PF9363-1000nM / PF9363-0nM / Log2FC PF9363-10000nM / PF9363-0nM: H3K14-CoA beads, TMT
H3K14Ac (KAT7) [2] = test: Histone biomarker bottom-up LC-MS/MS, MCF-7; format: cell-based; settings: for Ratio, H3_9_17 K9me1K14ac / Ratio, H3_9_17 K9me2K14ac / Ratio, H3_9_17 K14ac: Replicates 1-3
H4K16Ac (KAT8) = test: Histone biomarker bottom-up LC-MS/MS, MCF-7; format: cell-based; settings: for Ratio, H4_4_17 K16ac: Replicates 1-3
H3K9Ac (KAT2A/B) = test: Histone biomarker bottom-up LC-MS/MS, MCF-7; format: cell-based; settings: for Ratio, H3_9_17 K9ac: Replicates 1-3
H2A.ZK4/K7Ac (KAT5) = test: MYST KAT biomarker western blot, BT-549; format: cell-based; settings: BT-549 cells, 24 h, 0.1-30 μM
From the text: (§1) Figure 6. […] (C) Dependence of breast cancer cell lines on non-MYST KATs (EP300, CREBBP), MYST KATs (KAT6A, KAT6B, KAT7, KAT8, KAT5), and a MYST KAT complex member (BRPF1) derived from on DepMap CRISPR screening data. BT-549 is highlighted in orange. Lower CERES score indicates a greater dependence of the cell line on the specified gene. […] Data is representiative of n=2 biological replicates.
(§2) Analysis of DepMap-derived CRISPR screening data supports the notion that while breast cancer models vary widely in their requirement for EP300 and CREBBP, BT-549 appears to a fairly independent line. By comparison, targeting of KAT6 and KAT7 exerts modest effects on growth while KAT8 is highly inhibitory, consistent with its designation as an essential gene (Fig. 6C).[47], [48] […] KAT3 (H3K18Ac) and KAT5 (H2A.ZK4/K7Ac) were unaffected. […]
(§3) distinguish between tightly grouped and diffuse clusters, compactness was quantified by calculating the average pairwise Euclidean distance between all points within each cluster. Clusters with lower average […]
(§4) were visualized as two-dimensional scatter plots with points colored according to cluster assignments, […]
(§5) Binding structures between FOXK2 (Uniprot: Q01167) and candidate interactors identified from our chemoproteomic data were predicted using AlphaPulldown4 v0.30.7,4 with multiple sequence alignments generated via ColabFold Search v1.5.5 on the NIH HPC Biowulf Cluster. Five models were generated per protein-protein pair without using templates or paired MSAs. Local Interaction Scores (LIS) and Local Interaction Area (LIA) were calculated according to previously described formulas.5 Structural visualizations were generated using ChimeraX v1.8.
(§6) Composite scoring of candidate FOXK2-protein interactions
(§7) To prioritize potential interactions, we developed a composite scoring system integrating multiple AlphaFold metrics (mpDockQ/pDockQ, LIS, and LIA), building upon established approaches for protein-protein interaction analysis.6 Each interaction was evaluated against minimum acceptable thresholds (1610 for LIA, 0.073 for LIS, and 0.175 for mpDockQ/pDockQ) and assigned a weighted constant (k): 1.0 for passing all three thresholds, 0.75 for two, 0.5 for one, and zero for none. Metrics were then min-max normalized, summed, and multiplied by the weighted constant to generate final composite scores for ranking candidate interactions. All data, code, and analysis scripts can be accessed as described in Data […]
(§8) Prediction of interface contacts […]
(§9) P61964), were further analyzed to identify interface residue-residue contacts using both AlphaFold2 and AlphaFold3. For AlphaFold2 analysis7 we calculated Euclidean distances between alpha carbon coordinates of residues using Sci-Py's Distance Matrix Module, filtering for interactions under 8Å. […]

H3K14Ac (KAT7) [3] = test: MYST KAT biomarker western blot, BT-549; format: cell-based; settings: BT-549 cells, 24 h, near the GI50 dose
From the text: as §1, §2, §3, §4, §5, §6, §7, §8, §9

H3K18Ac (KAT3) = test: MYST KAT biomarker western blot, BT-549; format: cell-based; settings: BT-549 cells, 24 h, 0.1-30 μM
From the text: as §1, §2, §3, §4, §5, §6, §7, §8, §9

H3K23Ac (KAT6A/B) = test: MYST KAT biomarker western blot, BT-549; format: cell-based; settings: BT-549 cells, 24 h, near the GI50 dose
From the text: as §1, §2, §3, §4, §5, §6, §7, §8, §9

[4] = Homo sapiens, MCF7, MCF-7 cells, 24 h
[5] = KAT marker KAT7, PF-9363 0.1 v 30
[6] = KAT marker KAT7, PF-9363 (0.1 mM)
[7] = KAT marker KAT7, PF-9363 (30 mM)

## COc1cccc(OC)c1S(=O)(=O)Nc1noc2cc(Cn3cccn3)cc(OC)c12 [PF-9363]
[1]; 0, 0.1, 1, 10 μM
  competition of capture of NAT10, ESCO1, KAT2B (other clusters): relatively insensitive
[1]; protein BLM (P54132)
  Log2FC PF9363-100nM / PF9363-0nM: 0.02
  Log2FC PF9363-1000nM / PF9363-0nM: 0.03
  Log2FC PF9363-10000nM / PF9363-0nM: 0.05
[1]; protein BRPF3
  concentration at which BRPF3 capture is competed: 10 µM
[1]; protein MKI67 (P46013)
  Log2FC PF9363-100nM / PF9363-0nM: -0.01
  Log2FC PF9363-1000nM / PF9363-0nM: -0.01
  Log2FC PF9363-10000nM / PF9363-0nM: 0.02
[1]; protein NUMA1 (Q14980)
  Log2FC PF9363-100nM / PF9363-0nM: 0.02
  Log2FC PF9363-1000nM / PF9363-0nM: 0.05
  Log2FC PF9363-10000nM / PF9363-0nM: 0.06
[1]; protein TRRAP (Q9Y4A5)
  Log2FC PF9363-100nM / PF9363-0nM: -0.05
  Log2FC PF9363-1000nM / PF9363-0nM: -0.12
  Log2FC PF9363-10000nM / PF9363-0nM: -0.22
H3K14Ac (KAT7) [2]; [4]
  IC50: ~1 µM
H3K14Ac (KAT7) [2]; [5]
  Fold-change 0.1 v 30, H3_9_17 K9me1K14ac: 5.55
  Fold-change 0.1 v 30, H3_9_17 K9me2K14ac: 4.54
  Fold-change 0.1 v 30, H3_9_17 K14ac: 4.58
H3K14Ac (KAT7) [2]; [6]
  Average ratio, H3_9_17 K9me1K14ac: 0.0218
  Average ratio, H3_9_17 K9me2K14ac: 0.1048
  Average ratio, H3_9_17 K14ac: 0.0358
H3K14Ac (KAT7) [2]; [7]
  Average ratio, H3_9_17 K9me1K14ac: 0.0039
  Average ratio, H3_9_17 K9me2K14ac: 0.0231
  Average ratio, H3_9_17 K14ac: 0.0078
H3K14Ac (KAT7) [2]; KAT marker KAT7, dose 0.1
  Ratio, H3_9_17 K9me1K14ac: 0.01996 and 0.02377 and 0.02171
  Ratio, H3_9_17 K9me2K14ac: 0.087 and 0.123 and 0.1045
  Ratio, H3_9_17 K14ac: 0.03031 and 0.04488 and 0.03226
H3K14Ac (KAT7) [2]; KAT marker KAT7, dose 1
  Ratio, H3_9_17 K9me1K14ac: 0.01133 and 0.012 and 0.01281
  Ratio, H3_9_17 K9me2K14ac: 0.0545 and 0.07102 and 0.04882
  Ratio, H3_9_17 K14ac: 0.02498 and 0.02856 and 0.02464
H3K14Ac (KAT7) [2]; KAT marker KAT7, dose 10
  Ratio, H3_9_17 K9me1K14ac: 0.004127 and 0.006046 and 0.005821
  Ratio, H3_9_17 K9me2K14ac: 0.02988 and 0.02204 and 0.03567
  Ratio, H3_9_17 K14ac: 0.01535 and 0.01122 and 0.01409
H3K14Ac (KAT7) [2]; KAT marker KAT7, dose 30
  Ratio, H3_9_17 K9me1K14ac: 0.004797 and 0.003603 and 0.003398
  Ratio, H3_9_17 K9me2K14ac: 0.01983 and 0.02491 and 0.02445
  Ratio, H3_9_17 K14ac: 0.006424 and 0.008372 and 0.008647
H4K16Ac (KAT8); [4]
  IC50: ~10 µM
H4K16Ac (KAT8); KAT marker KAT8, PF-9363 0.1
  Ratio, H4_4_17 K16ac: 0.3188 and 0.3244 and 0.3222
H4K16Ac (KAT8); KAT marker KAT8, PF-9363 1
  Ratio, H4_4_17 K16ac: 0.2629 and 0.2802 and 0.2713
H4K16Ac (KAT8); KAT marker KAT8, PF-9363 10
  Ratio, H4_4_17 K16ac: 0.1497 and 0 and 0.16
H4K16Ac (KAT8); KAT marker KAT8, PF-9363 30
  Ratio, H4_4_17 K16ac: 0 (2×) and 0.08259
H4K16Ac (KAT8); KAT marker KAT8, PF-9363 (0.1 mM)
  Average ratio, H4_4_17 K16ac: 0.3218
H4K16Ac (KAT8); KAT marker KAT8, PF-9363 (30 mM)
  Average ratio, H4_4_17 K16ac: 0.0275
H4K16Ac (KAT8); KAT marker KAT8, average ratio 0.1 v 30
  Fold-change 0.1 v 30, H4_4_17 K16ac: 11.69
H3K9Ac (KAT2A/B); KAT marker KAT2A/B, PF-9363 0.1 v 30
  Fold-change 0.1 v 30, H3_9_17 K9ac: 1.55
H3K9Ac (KAT2A/B); KAT marker KAT2A/B, PF-9363 (30 μM)
  Average ratio, H3_9_17 K9ac: 0.0036
H3K9Ac (KAT2A/B); KAT marker KAT2A/B, PF-9363 (0.1 mM)
  Average ratio, H3_9_17 K9ac: 0.0056
H3K9Ac (KAT2A/B); KAT marker KAT2A/B, dose 0.1
  Ratio, H3_9_17 K9ac: 0.007813 and 0.000147 and 0.0089
H3K9Ac (KAT2A/B); KAT marker KAT2A/B, dose 1
  Ratio, H3_9_17 K9ac: 0.005499 and 0.002205 and 0.005001
H3K9Ac (KAT2A/B); KAT marker KAT2A/B, dose 10
  Ratio, H3_9_17 K9ac: 0.000496 and 0.002771 and 0.002815
H3K9Ac (KAT2A/B); KAT marker KAT2A/B, dose 30
  Ratio, H3_9_17 K9ac: 0.004671 and 0.003182 and 0.003055
H3K9Ac (KAT2A/B); MCF-7 cells, 24 h, any concentration (0.1-30 μM)
  modulation of H3K9Ac: not found to modulate
H2A.ZK4/K7Ac (KAT5)
  effect on KAT5 (H2A.ZK4/K7Ac): unaffected
H3K14Ac (KAT7) [3]
  inhibition of KAT7 (H3K14Ac): near complete inhibiton
H3K18Ac (KAT3)
  effect on KAT3 (H3K18Ac): unaffected
H3K23Ac (KAT6A/B)
  inhibition of KAT6A/B (H3K23Ac): near complete inhibiton
